Measurements reported in ChEMBL document CHEMBL1126344, “Substituted penta- and hexapeptides as potent inhibitors of herpes simplex virus type 2 ribonucleotide reductase” (Bioorg Med Chem Lett, 1992).
Starred links: 1 amine or outer side, 2 acyl side, 3 side chain; linkers in the order of their positions; H or OH if unused. Non-standard residues stand in square brackets, D forms with d. Residues, ends and D or L forms follow the SMILES beside them. *: point of attachment. X1 = O=C([C@H](Cc1ccc(O)cc1)N(Cc1cccc(Oc2ccccc2)c1)[*:1])[*:2]; X2 = O=C([C@H](Cc1ccc(O)cc1)N(c1ccc(-c2ccccc2)cc1)[*:1])[*:2]; X3 = O=C([C@H](Cc1ccc(O)cc1)N(Cc1ccsc1)[*:1])[*:2]; NBnTyr = O=C(O)[C@H](Cc1ccc(O)cc1)NCc1ccccc1; tBuAla = CC(C)(C)C[C@H](N)C(=O)O; NBn2 = c1ccc(CN(Cc2ccccc2)*)cc1; Cha = N[C@@H](CC1CCCCC1)C(=O)O; αMeL = CC(C)C[C@](C)(N)C(=O)O; Morpholide = C1CN(*)CCO1; Pyrrolidide = C1CCN(*)C1; Nva = CCC[C@H](N)C(=O)O; NHBn = c1ccc(CN*)cc1; NMeEt = CCN(C)*

Assays:
[1] = Inhibitory activity of YAGAVVNDL against Herpes Simplex Virus type 2 (HSV-2) ribonucleotide reductase determined as control; design: species or system Human alphaherpesvirus 2
[2] = test system: Human alphaherpesvirus 2; test: Relative potency to that of YAGAVVNDL against Herpes Simplex Virus type 2 ribonucleotide reductase
[3] = target: Ribonucleotide reductase (Herpes simplex virus type 2); test: Compound was tested in vitro for inhibitory activity against Herpes Simplex Virus type 2 ribonucleotide reductase
[4] = The compound was tested in vitro for inhibitory activity against Herpes Simplex Virus type 2 ribonucleotide reductase; design: species or system Human alphaherpesvirus 2

IC50 [3]	Compound	IC50 [1]	Relative potency [2]	IC50 [4]
5 µM	CC(C)C[C@H](NC(=O)[C@H](CC(=O)O)NC(=O)[C@H](CC(N)=O)NC(=O)[C@@H](NC(=O)[C@@H](NC(=O)Cc1ccc2ccccc2c1)C(C)C)C(C)C)C(=O)O	30 µM	6	
	CC(C)C[C@H](NC(=O)[C@H](CC(=O)O)NC(=O)[C@H](CC(=O)N1CCOCC1)NC(=O)[C@@H](NC(=O)[C@@H](NC(=O)[C@@H](N)Cc1ccc(O)cc1)C(C)C)C(C)C)C(=O)O (H-YVVD(Morpholide)DL-OH)	22 µM	36	0.6 µM
	CC(C)C[C@H](NC(=O)[C@H](CC(=O)O)NC(=O)[C@H](CC(=O)N(Cc1ccccc1)Cc1ccccc1)NC(=O)[C@@H](NC(=O)[C@@H](NC(=O)[C@@H](N)Cc1ccc(O)cc1)C(C)C)C(C)C)C(=O)O (H-YVVD(NBn2)DL-OH)	25 µM	13	2 µM
	CC(C)C[C@H](NC(=O)[C@H](CC(=O)O)NC(=O)[C@H](CC(=O)NCc1ccccc1)NC(=O)[C@@H](NC(=O)[C@@H](NC(=O)[C@@H](N)Cc1ccc(O)cc1)C(C)C)C(C)C)C(=O)O (H-YVVD(NHBn)DL-OH)	22 µM	5.5	4 µM
	CNC(=O)C[C@H](NC(=O)[C@@H](NC(=O)[C@@H](NC(=O)[C@@H](N)Cc1ccc(O)cc1)C(C)C)C(C)C)C(=O)N[C@@H](CC(=O)O)C(=O)N[C@@H](CC(C)C)C(=O)O (H-YVVD(NHMe)DL-OH)	21 µM	11	2 µM
	CC(C)C[C@H](NC(=O)[C@H](CC(=O)O)NC(=O)[C@H](CC(=O)N(C)C)NC(=O)[C@@H](NC(=O)[C@@H](NC(=O)[C@@H](N)Cc1ccc(O)cc1)C(C)C)C(C)C)C(=O)O (H-YVVD(NMe2)DL-OH)	27 µM	90	0.3 µM
	CC(C)[C@H](NC(=O)[C@@H](NC(=O)[C@@H](N)Cc1ccc(O)cc1)C(C)C)C(=O)N[C@@H](CC(=O)N(C)C)C(=O)N[C@@H](CC(=O)O)C(=O)N[C@@H](CC(C)(C)C)C(=O)O (H-YVVD(NMe2)D[tBuAla]-OH)	22 µM	110	0.2 µM
	CCN(C)C(=O)C[C@H](NC(=O)[C@@H](NC(=O)[C@@H](NC(=O)[C@@H](N)Cc1ccc(O)cc1)C(C)C)C(C)C)C(=O)N[C@@H](CC(=O)O)C(=O)N[C@@H](CC(C)C)C(=O)O (H-YVVD(NMeEt)DL-OH)	10 µM	25	0.4 µM
	CC(C)C[C@H](NC(=O)[C@H](CC(=O)O)NC(=O)[C@H](CC(=O)N1CCCC1)NC(=O)[C@@H](NC(=O)[C@@H](NC(=O)[C@@H](N)Cc1ccc(O)cc1)C(C)C)C(C)C)C(=O)O (H-YVVD(Pyrrolidide)DL-OH)	32 µM	32	1 µM
	CC(C)[C@H](NC(=O)[C@@H](NC(=O)[C@@H](N)Cc1ccc(O)cc1)C(C)C)C(=O)N[C@@H](CC(N)=O)C(=O)N[C@@H](CC(=O)O)C(=O)N[C@@H](CC1CCCCC1)C(=O)O (H-YVVND[Cha]-OH)	16 µM	0.29	55 µM
	CCC[C@H](NC(=O)[C@H](CC(=O)O)NC(=O)[C@H](CC(N)=O)NC(=O)[C@@H](NC(=O)[C@@H](NC(=O)[C@@H](N)Cc1ccc(O)cc1)C(C)C)C(C)C)C(=O)O (H-YVVND[Nva]-OH)	25 µM	0.16	160 µM
	CC(C)[C@H](NC(=O)[C@@H](NC(=O)[C@@H](N)Cc1ccc(O)cc1)C(C)C)C(=O)N[C@@H](CC(N)=O)C(=O)N[C@@H](CC(=O)O)C(=O)N[C@@H](CC(C)(C)C)C(=O)O (H-YVVND[tBuAla]-OH)	43 µM	3.3	13 µM
	CC(C)C[C@](C)(NC(=O)[C@H](CC(=O)O)NC(=O)[C@H](CC(N)=O)NC(=O)[C@@H](NC(=O)[C@@H](NC(=O)[C@@H](N)Cc1ccc(O)cc1)C(C)C)C(C)C)C(=O)O (H-YVVND[αMeL]-OH)	38 µM	0.12	320 µM
	CC(C)[C@H](NC(=O)[C@H](Cc1ccc(O)cc1)NCc1ccccc1)C(=O)N[C@H](C(=O)N[C@@H](CC(=O)N(C)C)C(=O)N[C@@H](CC(=O)O)C(=O)N[C@@H](CC(C)(C)C)C(=O)O)C(C)C (H-[NBnTyr]VVD(NMe2)D[tBuAla]-OH)	18 µM	60	0.3 µM
6 µM	CC(C)C[C@H](NC(=O)[C@H](CC(=O)O)NC(=O)[C@H](CC(N)=O)NC(=O)[C@@H](NC(=O)[C@@H](NC(=O)[C@H](Cc1ccc(O)cc1)NCc1ccccc1)C(C)C)C(C)C)C(=O)O (H-[NBnTyr]VVNDL-OH)	30 µM	5	
	CC(C)[C@H](NC(=O)[C@H](Cc1ccc(O)cc1)NCc1ccccc1)C(=O)N[C@H](C(=O)N[C@@H](CC(N)=O)C(=O)N[C@@H](CC(=O)O)C(=O)N[C@@H](CC(C)(C)C)C(=O)O)C(C)C (H-[NBnTyr]VVND[tBuAla]-OH)	35 µM	23	1.5 µM
	CC(C)C[C@H](NC(=O)[C@H](CC(=O)O)NC(=O)[C@H](CC(N)=O)NC(=O)[C@@H](NC(=O)[C@@H](NC(=O)[C@H](Cc1ccc(O)cc1)NCc1cccc(Oc2ccccc2)c1)C(C)C)C(C)C)C(=O)O (H-[X1]VVNDL-OH)	40 µM	3.3	12 µM
	CC(C)C[C@H](NC(=O)[C@H](CC(=O)O)NC(=O)[C@H](CC(N)=O)NC(=O)[C@@H](NC(=O)[C@@H](NC(=O)[C@H](Cc1ccc(O)cc1)Nc1ccc(-c2ccccc2)cc1)C(C)C)C(C)C)C(=O)O (H-[X2]VVNDL-OH)	34 µM	1.1	32 µM
	CC(C)C[C@H](NC(=O)[C@H](CC(=O)O)NC(=O)[C@H](CC(N)=O)NC(=O)[C@@H](NC(=O)[C@@H](NC(=O)[C@H](Cc1ccc(O)cc1)NCc1ccsc1)C(C)C)C(C)C)C(=O)O (H-[X3]VVNDL-OH)	80 µM	4	20 µM
0.45 µM	CC(C)C[C@H](NC(=O)[C@H](CC(=O)O)NC(=O)[C@H](CC(N)=O)NC(=O)[C@@H](NC(=O)[C@@H](NC(=O)C(Cc1ccccc1)Cc1ccc(O)cc1)C(C)C)C(C)C)C(=O)O (stereo in doubt; form 1)	9.5 µM		
